Laboratory results published in US20160361314A1, “COMBINATION OF AN ALK INHIBITOR AND A CDK INHIBITOR FOR THE TREATMENT OF CELL PROLIFERATIVE DISEASES” (NOVARTIS AG, priority 2013, published 2016).
“Also recorded” adds a separate entry of the source.

Tests used:
Assay type in all cases: cell-based
[1] = tested on: CHP-134 human neuroblastoma cells; experiment: Loewe additivity (CHALICE) synergy screen, CellTiter-Glo viability, 7x7 dose matrix; design: key to Max Combo Effect: growth inhibition scale; 100 = stasis; conditions: for Max Combo Effect: in % (unit assumed)
Procedure: (§1) The synergistic interaction of drug combinations were assessed based on the Loewe Additivity Model using Chalice software [CombinatoRx, Cambridge Mass.]). […] 27:659-66. The software compares the response (% inhibition or % reduction of cell viability) of drug treatment from a combination of two agents to the response of the agents acting alone, against the drug-with-itself dose-additive reference model (the Loewe Additivity Model). Deviations from dose additives can be assessed numerically with a “synergy score” which quantifies the overall strength of combination effect. A synergy score >0 indicates a synergistic combination. In order to ensure only strongly synergistic combinations were selected, the acceptance criteria were set at a higher level. Strongly synergistic combinations were defined as having both a synergy score >2, a synergy score that is twice as large as the background (non-synergy) model would predict, and a maximum efficacy of >100, a value equivalent to stasis, as determined from the growth inhibition calculation.
(§2) After treatment, cell viabilty (quantity of viable cells) for each test mixtures were determined by the CellTiter-Glo® (CTG) luminescent cell viability assay (Promega) described in the Assay section, infra. […] The response to treatment (% reduction of cell viability) was analyzed using Chalice software [CombinatoRx, Cambridge Mass.]). Data evaluation and graph generation were performed using Microsoft Excel software and Chalice software.
(§3) The combinations were tested in duplicate using a 7×7 dose matrix block in 1536 well format with a cell proliferation readout as described in the Assay section infra.
(§4) All synergy calculations were performed using CHALICE software package from Zalicus and potential synergistic interactions between compound combinations were assessed using the Excess Inhibition 2D matrix according to the Loewe additivity model and were reported as synergy score (Table 10) (Lehar et al). Strongly synergistic combination were identified as having both (1) a synergy score greater than 2, a synergy score that is twice as large as the background (non-synergy) model would predict, and (2) a maximum efficacy of >100, a value roughly equivalent to stasis, as determined from the growth inhibition calculation.
(§5) Cell viability were determined by measuring cellular ATP content using the CellTiter-Glo® (CTG) luminescent cell viability assay (Promega). […] Reduced and enhanced luminescent signal values (responses) were calculated relative to untreated (control) cells, and the calculated signal value proportional to the cell viability.
(§6) Synergistic combinations were identified based on the Loewe Addivity Model. To measure the effects of drug combinations on the cell viability, cells from the 20 cell lines listed in Table 1 above were seeded into 1536-well assay plates at a density 300 cells per well in a 7 μL final volume and incubated at 37° C. overnight in a GNF Systems incubator with 95% RH and 5% CO2.
(§7) A six-point dose response curve for the test compounds were prepared in a 384 well ECHO compatible source plate (Labcyte P-05525) with 3-fold serial dilution series. For example, for a six-point dose response curve and a top compound concentration of 5 mM, the concentration of the compounds in the source well were 5 mM, 1.67 mM, 0.56 mM, 0.19 mM, 0.06 mM and 0.02 mM.
(§8) Approximately 18 hours after plating, compound combinations were generated on the fly by transferring 7.5 nL of compound from the pre-diluted source plates using the Labcyte ECHO555 integrated onto the ACP-1 system with replicate plates per cell line; the final DMSO concentration per well was 0.2%. It is noted that the total volume in the wells was 7 μL.
(§9) The well at the intersection of the first column and first row which received no compound was dosed with 2×7.5 nL of DMSO and served as control.

[2] = tested on: KELLY human neuroblastoma cells; experiment: as above; design: key to Max Combo Effect: growth inhibition scale; 100 = stasis; conditions: KELLY (F1174L)
Procedure: as §1, §2, §3, §4, §5, §6, §7, §8, §9

[3] = tested on: LAN-5 human neuroblastoma cells; experiment: as above; design: key to Max Combo Effect: growth inhibition scale; 100 = stasis; conditions: LAN-5 (R1275Q)
Procedure: as §1, §2, §3, §4, §5, §6, §7, §8, §9

[4] = tested on: NB-1 human neuroblastoma cells; experiment: as above; design: key to Max Combo Effect: growth inhibition scale; 100 = stasis; conditions: for Max Combo Effect: in % (unit assumed)
Procedure: as §1, §2, §3, §4, §5, §6, §7, §8, §9

[5] = tested on: NB-1691 human neuroblastoma cells; experiment: as above; design: key to Max Combo Effect: growth inhibition scale; 100 = stasis; conditions: NB-1691 (WT); for Max Combo Effect: in % (unit assumed)
Procedure: as §1, §2, §3, §4, §5, §6, §7, §8, §9

[6] = tested on: NLF human neuroblastoma cells; experiment: as above; design: key to Max Combo Effect: growth inhibition scale; 100 = stasis; conditions: NLF (WT)
Procedure: as §1, §2, §3, §4, §5, §6, §7, §8, §9

[7] = tested on: SK-N-AS human neuroblastoma cells; experiment: as above; design: key to Max Combo Effect: growth inhibition scale; 100 = stasis; conditions: SK-N-AS (WT); for Max Combo Effect: in % (unit assumed)
Procedure: as §1, §2, §3, §4, §5, §6, §7, §8, §9

[8] = tested on: SK-N-BE(2) human neuroblastoma cells; experiment: as above; design: key to Max Combo Effect: growth inhibition scale; 100 = stasis; conditions: SK-N-BE(2) (WT)
Procedure: as §1, §2, §3, §4, §5, §6, §7, §8, §9

[9] = tested on: SK-N-FI human neuroblastoma cells; experiment: as above; design: key to Max Combo Effect: growth inhibition scale; 100 = stasis; conditions: SK-N-FI (WT); for Max Combo Effect: in % (unit assumed)
Procedure: as §1, §2, §3, §4, §5, §6, §7, §8, §9

[10] = tested on: panel of human neuroblastoma cell lines (ALK mutant and wild type); experiment: Loewe additivity (CHALICE) synergy screen, results over the whole panel; conditions: for Mean of synergy scores over the cell lines / Median of synergy scores over the cell lines: 15 cell lines of Table 2; for Single-agent efficacy over the panel (self-cross scatter plots): Example A, FIGS. 4A, 4B, 15 cell lines; for Efficacy and synergy over the panel (scatter plots): Example G, FIG. 21, 16 cell lines
Procedure: as §1, §2
The statistical variation of the synergy scores tabulated in Tables 2 and 3 were graphically illustrated by a Box Plot (FIG. 3). […] The ALK×ALK and CDK4/6×CDK4/6 combination is moderately sygergistic with synergy score at 1.011 (sd=0.4) and 1.16 (sd=0.43), respectively. In ALK normal cells, the combinations and the self-cross treatments were not sygeristic with synergistic score of about 0.5, but similarly large standard deviations.
For visual identification for strongly synergistic compositions, the data in Tables 2 and 3 were presented in scatter plots (FIGS. 4 A-C) where maximum combination efficacy were plotted against the synergy scores. Only data from two of the three ALK inhibitors, compounds A1 and A2 were included. In a scatter plot, a vertical shift implies additive effect; a right shift implies synergistic interactions and a diagonal shift implies synergy with a boost in efficacy. Synergistic combination hits are those in the upper right quadrant where the synergy score is >2 and the maximum efficacy is >100.
as §3, §4, §5
Synergistic combinations were identified based on the Loewe Addivity Model.

Cc1cc(Nc2ncc(Cl)c(Nc3ccccc3S(=O)(=O)C(C)C)n2)c(OC(C)C)cc1C1CCNCC1 [Compound A1, 5-chloro-N2-(2-isopropoxy-5-methyl-4-(piperidin-4-yl)phenyl)-N4-[2-(propane-2-sulfonyl)-phenyl]-pyrimidine-2,4-diamine]
Synergy score (Mean) ([1]; CHP-134 (ALK WT), Table 2): 0.223 | Max Combo Effect ([1]; CHP-134 (ALK WT), Table 2): 26.1 | Max Combo Effect ([2]; Table 2): 97.7 | Synergy score (Mean) ([2]; Table 2): 0.900 | Max Combo Effect ([3]; Table 2): 166.1 | Synergy score (Mean) ([3]; Table 2): 1.731 | Synergy score (Mean) ([4]; NB-1 (WT Amp), Table 2): 1.607 | Max Combo Effect ([4]; NB-1 (WT Amp), Table 2): 181.9 | Synergy score (Mean) ([5]; Table 2): 0.760 | Max Combo Effect ([5]; Table 2): 111.9 | Max Combo Effect ([6]; Table 2): 27.1 | Synergy score (Mean) ([6]; Table 2): 0.152 | Synergy score (Mean) ([7]; Table 2): 0.374 | Max Combo Effect ([7]; Table 2): 42.4 | Max Combo Effect ([8]; Table 2): 25.2 | Synergy score (Mean) ([8]; Table 2): 0.246 | Synergy score (Mean) ([9]; Table 2): 1.135 | Max Combo Effect ([9]; Table 2): 59.7 | Mean of synergy scores over the cell lines [10]: 0.841 | Median of synergy scores over the cell lines [10]: 0.884 | Single-agent efficacy over the panel (self-cross scatter plots) [10]: preferential single-agent efficacy for the ALK disease cell lines over the ALK normal cell lines | Efficacy and synergy over the panel (scatter plots) [10]: preferential single agent efficacy for the ALK Disease subset of cell lines over the ALK WT cell lines

Cc1cc(Nc2nc(Nc3ccccc3S(=O)(=O)C(C)C)c3cn[nH]c3n2)c(OC(C)C)cc1C1CCN(C)CC1 [Compound A2, N6-(2-isopropoxy-5-methyl-4-(1-methylpiperidin-4-yl)phenyl)-N4-(2-(isopropylsulfonyl)phenyl)-1H-pyrazolo[3,4-d]pyrimidine-4,6-diamine]
Synergy score (Mean) ([1]; CHP-134 (WT), Table 3): 0.10 | Max Combo Effect ([1]; CHP-134 (WT), Table 3): 180.10 | Max Combo Effect ([2]; Table 3): 191.61 | Synergy score (Mean) ([2]; Table 3): 0.64 | Max Combo Effect ([3]; Table 3): 196.81 | Synergy score (Mean) ([3]; Table 3): 0.87 | Synergy score (Mean) ([4]; NB-1 (WT_Amp), Table 3): identified as synergistic | Max Combo Effect ([4]; NB-1 (WT_Amp), Table 3): 193.34 | Synergy score (Mean) ([4]; NB-1 (WT_Amp), Table 3, listed as Cmpd A2 Self Cross): 2.97 | Synergy score (Mean) ([5]; Table 3): 0.97 | Max Combo Effect ([5]; Table 3): 196.56 | Max Combo Effect ([6]; Table 3): 183.68 | Synergy score (Mean) ([6]; Table 3): 0.63 | Synergy score (Mean) ([7]; Table 3): 0.20 | Max Combo Effect ([7]; Table 3): 61.99 | Max Combo Effect ([8]; Table 3): 177.26 | Synergy score (Mean) ([8]; Table 3): 0.47 | Synergy score (Mean) ([9]; Table 3): 0.65 | Max Combo Effect ([9]; Table 3): 161.68 | Single-agent efficacy over the panel (self-cross scatter plots) [10]: preferential single-agent efficacy for the ALK disease cell lines over the ALK normal cell lines

C[C@@H](Oc1cc(-c2cnn(C3CCNCC3)c2)cnc1N)c1c(Cl)ccc(F)c1Cl [Compound A3, (R)-3-(1-(2,6-dichloro-3-fluorophenyl)ethoxy)-5-(1-(piperidin-4-yl)-1H-pyrazol-4-yl)pyridin-2-amine, reference compound]
Synergy score (Mean) ([1]; CHP-134 (WT), Table 3): 0.02 | Max Combo Effect ([1]; CHP-134 (WT), Table 3): 10.05 | Max Combo Effect ([2]; Table 3): 134.74 | Synergy score (Mean) ([2]; Table 3): 0.47 | Synergy score (Mean) ([5]; Table 3): 0.21 | Max Combo Effect ([5]; Table 3): 36.53 | Max Combo Effect ([6]; Table 3): 29.10 | Synergy score (Mean) ([6]; Table 3): 0.08 | Synergy score (Mean) ([7]; Table 3): 0.19 | Max Combo Effect ([7]; Table 3): 55.78 | Max Combo Effect ([8]; Table 3): 10.76 | Synergy score (Mean) ([8]; Table 3): 0.02 | Max Combo Effect ([9]; Table 3): 20.37

CN(C)C(=O)c1cc2cnc(Nc3ccc(N4CCNCC4)cn3)nc2n1C1CCCC1 [Compound B, 7-cyclopentyl-N,N-dimethyl-2-((5-(piperazin-1-yl)pyridin-2-yl)amino)-7H-pyrrolo[2,3-d]pyrimidine-6-carboxamide]
Synergy score (Mean) ([1]; CHP-134 (ALK WT), Table 2): 0.388 | Max Combo Effect ([1]; CHP-134 (ALK WT), Table 2): 52.3 | Synergy score (Mean) ([1]; CHP-134 (WT), Table 3): 0.35 | Max Combo Effect ([1]; CHP-134 (WT), Table 3): 48.76 | Max Combo Effect ([2]; Table 2): 60.5 | Synergy score (Mean) ([2]; Table 2): 0.255 | Max Combo Effect ([2]; Table 3): 27.66 | Synergy score (Mean) ([2]; Table 3): 0.19 | Max Combo Effect ([3]; Table 2): 99.2 | Synergy score (Mean) ([3]; Table 2): 1.161 | Max Combo Effect ([3]; Table 3): 73.59 | Synergy score (Mean) ([3]; Table 3): 0.57 | Synergy score (Mean) ([4]; NB-1 (WT Amp), Table 2): 1.429 | Max Combo Effect ([4]; NB-1 (WT Amp), Table 2): 111.0 | Synergy score (Mean) ([4]; NB-1 (WT_Amp), Table 3): 0.34 | Max Combo Effect ([4]; NB-1 (WT_Amp), Table 3): 40.57 | Synergy score (Mean) ([5]; Table 2): 1.032 | Max Combo Effect ([5]; Table 2): 121.1 | Synergy score (Mean) ([5]; Table 3): 0.38 | Max Combo Effect ([5]; Table 3): 91.57 | Max Combo Effect ([6]; Table 2): 43.9 | Synergy score (Mean) ([6]; Table 2): 0.122 | Max Combo Effect ([6]; Table 3): 45.7 | Synergy score (Mean) ([6]; Table 3): 0.54 | Synergy score (Mean) ([7]; Table 2): 0.503 | Max Combo Effect ([7]; Table 2): 64.7 | Synergy score (Mean) ([7]; Table 3): 0.48 | Max Combo Effect ([8]; Table 2): 75.2 | Synergy score (Mean) ([8]; Table 2): 0.628 | Max Combo Effect ([8]; Table 3): 93.3 | Synergy score (Mean) ([8]; Table 3): 1.41 | Synergy score (Mean) ([9]; Table 2): 0.435 | Max Combo Effect ([9]; Table 2): 60.3 | Synergy score (Mean) ([9]; Table 3): 0.21 | Max Combo Effect ([9]; Table 3): 51.2 | Mean of synergy scores over the cell lines [10]: 0.757 | Median of synergy scores over the cell lines [10]: 0.788 | Single-agent efficacy over the panel (self-cross scatter plots) [10]: single-agent efficacy (>100) in two disease cell lines and one normal cell line; also recorded: minimal single agent efficacy or synergy | Efficacy and synergy over the panel (scatter plots) [10]: no single agent efficacy in any of the cell lines tested
